Measurements: the supplement of paper PMC9663587

Legend:
BSJ-03-123 = compound: CC(=O)c1c(C)c2cnc(Nc3ccc(N4CCN(CCOCCOCCOCCNC(=O)COc5cccc6c5C(=O)N(C5CCC(=O)NC5=O)C6=O)CC4)cn3)nc2n(C2CCCC2)c1=O [BSJ-03-123]; assay: increase in dead-cell fraction, 72 h; higher = more death;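 also: breast cancer cell lines in 384-well plates, stained with Hoechst plus LIVE/DEAD far red dye and imaged, cells above an LDR intensity threshold counted dead, Hoechst-negative corpses included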
[1] = compound: CC(=O)c1c(C)c2cnc(Nc3ccc(N4CCNCC4)cn3)nc2n(C2CCCC2)c1=O; assay: as above
[2] = compound: CCN1CCN(Cc2ccc(Nc3ncc(F)c(-c4cc(F)c5nc(C)n(C(C)C)c5c4)n3)nc2)CC1; assay: as above
Neratinib/HKI272 = compound: CCOc1cc2ncc(C#N)c(Nc3ccc(OCc4ccccn4)c(Cl)c3)c2cc1NC(=O)/C=C/CN(C)C [Neratinib/HKI272]; assay: as above
[3] = compound: CCc1cnn2c(NCc3ccc[n+]([O-])c3)cc(N3CCCC[C@H]3CCO)nc12; assay: as above
LEE011/Ribociclib = compound: CN(C)C(=O)c1cc2cnc(Nc3ccc(N4CCNCC4)cn3)nc2n1C1CCCC1 [LEE011/Ribociclib]; assay: as above
THZ1 [4] = compound: T1, CN(C)C/C=C/C(=O)Nc1ccc(C(=O)Nc2cccc(Nc3ncc(Cl)c(-c4c[nH]c5ccccc45)n3)c2)cc1 [THZ1]; assay: as above
Flavopiridol [5] = compound: T2, CN1CC[C@H](c2c(O)cc(O)c3c(=O)cc(-c4ccccc4Cl)oc23)[C@H](O)C1 [Flavopiridol]; assay: as above
[6] = compound: CC(=O)c1c(C)c2cnc(Nc3ccc(N4CCNCC4)cn3)nc2n(C2CCCC2)c1=O; assay: GR value, 72 h; higher = faster growth (1 = untreated, <0 = killing);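 also: breast cancer and non-malignant breast epithelial lines, nine half-log doses, viable cells counted by Hoechst and LIVE/DEAD dye imaging versus time-zero plates and DMSO controls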
THZ531 = compound: CN(C)C/C=C/C(=O)Nc1ccc(C(=O)N2CCC[C@@H](Nc3ncc(Cl)c(-c4c[nH]c5ccccc45)n3)C2)cc1 [THZ531]; assay: as above
THZ1 [7] = compound: T1, THZ1; assay: as above
Flavopiridol [8] = compound: T2, Flavopiridol; assay: as above

PDXHCI002
increase in dead-cell fraction (BSJ-03-123; 0.001 µM): -0.0304 | increase in dead-cell fraction (BSJ-03-123; 0.003162 µM): -0.0395 | increase in dead-cell fraction (BSJ-03-123; 0.01 µM): -0.0247 | increase in dead-cell fraction (BSJ-03-123; 0.03162 µM): 0.0116 | increase in dead-cell fraction (BSJ-03-123; 0.1 µM): 0.0131 | increase in dead-cell fraction (BSJ-03-123; 0.3162 µM): 0.02 | increase in dead-cell fraction (BSJ-03-123; 1 µM): 0.121 | increase in dead-cell fraction (BSJ-03-123; 3.162 µM): 0.127 | increase in dead-cell fraction (BSJ-03-123; 10 µM): 0.299 | increase in dead-cell fraction ([1]; 0.0003162 µM): -0.0007 | increase in dead-cell fraction ([1]; 0.001 µM): 0.0001 | increase in dead-cell fraction ([1]; 0.003162 µM): -0.0134 | increase in dead-cell fraction ([1]; 0.01 µM): -0.0207 | increase in dead-cell fraction ([1]; 0.03162 µM): -0.015 | increase in dead-cell fraction ([1]; 0.1 µM): -0.0124 | increase in dead-cell fraction ([1]; 0.3162 µM): -0.0203 | increase in dead-cell fraction ([1]; 1 µM): -0.0173 | increase in dead-cell fraction ([1]; 3.162 µM): -0.0092 | increase in dead-cell fraction ([2]; 0.001 µM): -0.0112 | increase in dead-cell fraction ([2]; 0.003162 µM): -0.0293 | increase in dead-cell fraction ([2]; 0.01 µM): -0.0317 | increase in dead-cell fraction ([2]; 0.03162 µM): -0.0292 | increase in dead-cell fraction ([2]; 0.1 µM): -0.0036 | increase in dead-cell fraction ([2]; 0.3162 µM): 0.0233 | increase in dead-cell fraction ([2]; 1 µM): 0.161 | increase in dead-cell fraction ([2]; 3.162 µM): 0.61 | increase in dead-cell fraction ([2]; 10 µM): 0.778 | increase in dead-cell fraction (Neratinib/HKI272; 0.0003162 µM): 0.0061 | increase in dead-cell fraction (Neratinib/HKI272; 0.001 µM): -0.001 | increase in dead-cell fraction (Neratinib/HKI272; 0.003162 µM): -0.0049 | increase in dead-cell fraction (Neratinib/HKI272; 0.01 µM): -0.0162 | increase in dead-cell fraction (Neratinib/HKI272; 0.03162 µM): 0.0001 | increase in dead-cell fraction (Neratinib/HKI272; 0.1 µM): -0.0122 | increase in dead-cell fraction (Neratinib/HKI272; 0.3162 µM): 0.0151 | increase in dead-cell fraction (Neratinib/HKI272; 1 µM): 0.0548 | increase in dead-cell fraction (Neratinib/HKI272; 3.162 µM): 0.31 | increase in dead-cell fraction ([3]; 0.0001 µM): -0.0076 | increase in dead-cell fraction ([3]; 0.0003162 µM): -0.0064 | increase in dead-cell fraction ([3]; 0.001 µM): -0.0055 | increase in dead-cell fraction ([3]; 0.003162 µM): -0.0087 | increase in dead-cell fraction ([3]; 0.01 µM): -0.0047 | increase in dead-cell fraction ([3]; 0.03162 µM): 0.451 | increase in dead-cell fraction ([3]; 0.1 µM): 0.504 | increase in dead-cell fraction ([3]; 0.3162 µM): 0.458 | increase in dead-cell fraction ([3]; 1 µM): 0.44 | increase in dead-cell fraction (LEE011/Ribociclib; 0.001 µM): -0.0323 | increase in dead-cell fraction (LEE011/Ribociclib; 0.003162 µM): -0.0237 | increase in dead-cell fraction (LEE011/Ribociclib; 0.01 µM): -0.0167 | increase in dead-cell fraction (LEE011/Ribociclib; 0.03162 µM): -0.0095 | increase in dead-cell fraction (LEE011/Ribociclib; 0.1 µM): -0.0015 | increase in dead-cell fraction (LEE011/Ribociclib; 0.3162 µM): -0.0029 | increase in dead-cell fraction (LEE011/Ribociclib; 1 µM): -0.0185 | increase in dead-cell fraction (LEE011/Ribociclib; 3.162 µM): 0.0196 | increase in dead-cell fraction (LEE011/Ribociclib; 10 µM): 0.0853 | increase in dead-cell fraction (THZ1 [4]; 0.0001 µM): -0.0106 | increase in dead-cell fraction (THZ1 [4]; 0.0003162 µM): -0.015 | increase in dead-cell fraction (THZ1 [4]; 0.001 µM): -0.01 | increase in dead-cell fraction (THZ1 [4]; 0.003162 µM): -0.0152 | increase in dead-cell fraction (THZ1 [4]; 0.01 µM): 0.0629 | increase in dead-cell fraction (THZ1 [4]; 0.03162 µM): 0.221 | increase in dead-cell fraction (THZ1 [4]; 0.1 µM): 0.272 | increase in dead-cell fraction (THZ1 [4]; 0.3162 µM): 0.269 | increase in dead-cell fraction (THZ1 [4]; 1 µM): 0.282 | increase in dead-cell fraction (Flavopiridol [5]; 0.0001 µM): -0.0222 | increase in dead-cell fraction (Flavopiridol [5]; 0.0003162 µM): 0.0027 | increase in dead-cell fraction (Flavopiridol [5]; 0.001 µM): -0.0057 | increase in dead-cell fraction (Flavopiridol [5]; 0.003162 µM): 0.0089 | increase in dead-cell fraction (Flavopiridol [5]; 0.01 µM): 0.0079 | increase in dead-cell fraction (Flavopiridol [5]; 0.03162 µM): 0 | increase in dead-cell fraction (Flavopiridol [5]; 0.1 µM): 0.0552 | increase in dead-cell fraction (Flavopiridol [5]; 0.3162 µM): 0.306 | increase in dead-cell fraction (Flavopiridol [5]; 1 µM): 0.294 | GR value ([6]; 0.0003162 µM): 1.09 GR | GR value ([6]; 0.001 µM): 1.09 GR | GR value ([6]; 0.003162 µM): 1.02 GR | GR value ([6]; 0.01 µM): 0.946 GR | GR value ([6]; 0.03162 µM): 0.723 GR | GR value ([6]; 0.1 µM): 0.552 GR | GR value ([6]; 0.3162 µM): 0.427 GR | GR value ([6]; 1 µM): 0.374 GR | GR value ([6]; 3.162 µM): 0.274 GR | GR value (THZ531; 0.0001 µM): 1.1 GR | GR value (THZ531; 0.0003162 µM): 1.06 GR | GR value (THZ531; 0.001 µM): 0.966 GR | GR value (THZ531; 0.003162 µM): 1.06 GR | GR value (THZ531; 0.01 µM): 0.958 GR | GR value (THZ531; 0.03162 µM): 0.782 GR | GR value (THZ531; 0.1 µM): 0.0491 GR | GR value (THZ531; 0.3162 µM): -0.122 GR | GR value (THZ531; 1 µM): -0.198 GR | GR value (THZ1 [7]; 0.0001 µM): 1.05 GR | GR value (THZ1 [7]; 0.0003162 µM): 1.01 GR | GR value (THZ1 [7]; 0.001 µM): 1.02 GR | GR value (THZ1 [7]; 0.003162 µM): 0.984 GR | GR value (THZ1 [7]; 0.01 µM): 0.541 GR | GR value (THZ1 [7]; 0.03162 µM): -0.0195 GR | GR value (THZ1 [7]; 0.1 µM): -0.163 GR | GR value (THZ1 [7]; 0.3162 µM): -0.148 GR | GR value (THZ1 [7]; 1 µM): -0.193 GR | GR value (Flavopiridol [8]; 0.0001 µM): 1.02 GR | GR value (Flavopiridol [8]; 0.0003162 µM): 0.997 GR | GR value (Flavopiridol [8]; 0.001 µM): 0.973 GR | GR value (Flavopiridol [8]; 0.003162 µM): 0.997 GR | GR value (Flavopiridol [8]; 0.01 µM): 0.999 GR | GR value (Flavopiridol [8]; 0.03162 µM): 0.817 GR | GR value (Flavopiridol [8]; 0.1 µM): 0.63 GR | GR value (Flavopiridol [8]; 0.3162 µM): -0.0265 GR | GR value (Flavopiridol [8]; 1 µM): -0.156 GR
